Experimental data from US10968186B2, “Ascochlorin derivative and use thereof as AMPK activator” (priority 2016, dated 2021).
pIC50: −log10 of the molar value. Converted amounts (≈) assume the structure as drawn.

Experiments:
[1] = system: Hep3B human liver cancer xenograft; assay: Antitumor activity in Hep3B human liver cancer xenograft model; assay type: in vivo, BALB/c nude mice; conditions: po 200 mg/kg once daily 5 days then 100 mg/kg 10 days; alone or in combination of sorafenib (80 mg/kg)
Procedure: Antitumor Activity of Compound 5 (po, qd×14) in Hep3B Human Liver Cancer Xenograft Model in BALB/c Nude Mice: Single Agent and Combination With Sorafenib
Each mouse was inoculated subcutaneously on the right flank with Hep3B tumor cells (5×106) in 0.1 ml of MEM-Matrigel mixture (1:1 ratio) for tumor development. The treatment started when the mean tumor size reached approximately 137 mm^3. Mice were then randomized into groups.
Compound 5 was dissolved in the vehicle (95% v/v PEG400+5% Tween 80) and orally administered to the tumor-bearing mice with 200 mg/kg, once daily for the first 5 days, followed by treatment with 100 mg/kg for 10 days.

[2] = Stability against mouse liver microsomes; assay type: in vitro ADME; conditions: mouse LM, 2 μM compound, 60 min, NADPH
Procedure: (§1) Determination of Stability Against Mouse and Human Mirosomes
(§2) Pooled human liver microsomes (Cat. 452161; Lot. 23418) were purchased from Corning and pooled male mouse liver microsomes (Cat. M1000; Lot. 1210302) were purchased from Xenotech. Microsomes were stored at −80° C. prior to use. 40 μL of ultra-pure H2O was used instead of NADPH solution in the negative control. The negative control was used to exclude the misleading factor that was resulted from instability of chemical itself. Samples with NADPH were prepared in duplicate. Negative controls were prepared in singlet.
(§3) The reaction was started with the addition of 4 μL of 200 μM compound solution to each master solution to get the final concentration of 2 μM. Verapamil was used as positive control in the assay. Aliquots of 50 μL were taken from the reaction solution at 0, 15, 30, 45 and 60 min. The reaction was stopped by addition of 4 volumes of cold acetonitrile with IS (200 nM imipramine, 200 nM labetalol and 2 μM ketoprofen). Samples were centrifuged at 3,220 g for 40 minutes. Aliquot of […] of the supernatant was mixed with 90 μL of ultra-pure H2O and then was used for LC-MS/MS analysis. Results are shown in Table 3 by indicating remaining % of the test compound after 60 minutes incubation with liver microsomes from human and mouse in the presence of NADPH.

MDA-MB-231 = assay: Anti-proliferative activity, CellTiterGlo assay, MDA-MB-231; assay type: cell-based; conditions: Homo sapiens; MDA-MB-231, 96 hrs incubation; read-out: Antiproliferative activities IC50, MDA-MB-231
Procedure: (§4) The anti-proliferative activities of the compounds against 6 human cancer cell lines were determined by CellTiterGlo assay kit. All cells were obtained from ATCC and cultured as recommended by the vendor. Cells were assayed in exponential growth phase. Sample solution was prepared by 3-fold serial dilution from 30 mM stock for 10 doses in DMSO. Antiproliferative activities were measured by CellTiterGlo assay kit according to the protocol after cells were incubated for 96 hrs in a 37° C., 5% CO2 incubator.
(§5) On the 4th day of incubation, i) 15 μl reagent (CelltiterGlo assay kit) was added per well and plate was shaken (avoiding light) for 2 mins on a plate shaker, ii) the plate was kept (avoiding light) in room temperature for 30 min, and iii) the luminescence value was recorded by Multiplate reader.

BxPC-3 = assay: Anti-proliferative activity, CellTiterGlo assay, BxPC-3; assay type: cell-based; conditions: Homo sapiens; BxPC-3, 96 hrs incubation; read-out: Antiproliferative activities IC50, BxPC-3
Procedure: as §4, §5

A549 = assay: Anti-proliferative activity, CellTiterGlo assay, A549; assay type: cell-based; conditions: Homo sapiens; A549, 96 hrs incubation; read-out: Antiproliferative activities IC50, A549
Procedure: as §4, §5

LNCaP = assay: Anti-proliferative activity, CellTiterGlo assay, LNCaP; assay type: cell-based; conditions: Homo sapiens, 96 hrs incubation, read-out: Antiproliferative activities IC50, LNCaP
Procedure: as §4, §5

HT29 = assay: Anti-proliferative activity, CellTiterGlo assay, HT29; assay type: cell-based; conditions: Homo sapiens, HT-29; HT29, 96 hrs incubation; read-out: Antiproliferative activities IC50, HT29
Procedure: as §4, §5

U87-MG = assay: Anti-proliferative activity, CellTiterGlo assay, U87-MG; assay type: cell-based; conditions: Homo sapiens, U-87 MG, 96 hrs incubation, read-out: Antiproliferative activities IC50, U87-MG
Procedure: as §4, §5

[3] = Stability against human liver microsomes; assay type: in vitro ADME; conditions: 2 μM compound
Procedure: as §1, §2, §3

[4] = Stability in acidic pH phosphate buffer solution (hydrolysis to MAC); assay type: physicochemical; conditions: room temperature
Description: Therefore, the Schiff base derivatives of MAC have the same problem in the metabolic stability as the parent compound, MAC.

[5] = Solubility in pH4.0 and pH7.4 phosphate buffer solution; assay type: physicochemical; conditions: 2 hr incubation, 25° C.
Procedure: 1) Preparation of Stock Solutions
Diclofenac was used as positive control in the assay.
2) Procedures for Solubility Determination
This study was performed in duplicate. […] The filtered samples were diluted with methanol.
3) Samples Analyzed by LC-MS/MS

For CC(/C=C/[C@@]1(C)[C@H](C)CC/C(=N\O)[C@@H]1C)=C\Cc1c(O)c(C=O)c(C)c(Cl)c1OCF [Compound 5, 3-chloro-4-(fluoromethoxy)-6-hydroxy-5-[(2E,4E)-5-[(1R,2R,3E,6R)-3-(hydroxyimino)-1,2,6-trimethylcyclohexyl]-3-methylpenta-2,4-dien-1-yl]-2-methylbenzaldehyde], the “effect to reduce the proliferation of the liver cancer cells (tumor size)” value [1] was “significant effect”, the “Liver microsome stability remaining % after 60 min incubation with NADPH, mouse LM” value [2] was 88% and the pIC50 (MDA-MB-231) was 5.59. For the same compound, the pIC50 (BxPC-3) was 5.49, the pIC50 (A549) was 5.57 and the pIC50 (LNCaP) was 5.74. The pIC50 (HT29) was 5.55, the pIC50 (U87-MG) was 5.26 and the “Liver microsome stability remaining % after 60 min incubation with NADPH, human LM” value [3] was 86%.

In the case of COc1c(Cl)c(C)c(C=O)c(O)c1C/C=C(C)/C=C/[C@@]1(C)[C@H](C)CC/C(=N\O)[C@@H]1C [Compound 2, 3-chloro-6-hydroxy-5-[(2E,4E)-5-[(1R,2R,3E,6R)-3-(hydroxyimino)-1,2,6-trimethylcyclohexyl]-3-methylpenta-2,4-dien-1-yl]-4-methoxy-2-methylbenzaldehyde], the melting point was 158 to 160 °C.

For COc1c(Cl)c(C)c(C=NCC(N)=O)c(O)c1C/C=C(C)/C=C/[C@@]1(C)[C@H](C)CCC(=O)[C@@H]1C [compound #13 in WO2004/074236, reference compound], the “hydrolysis to MAC at pH 4.0 phosphate buffer solution” value [4] was “almost instantly hydrolyzed to MAC”, the “Solubility, pH 4.0 PBS” value ([5]; pH 4.0 phosphate buffer solution) was “converted to MAC” and the solubility at 2 h ([5]; pH 7.4 phosphate buffer solution, read-out: Solubility, pH 7.4 PBS) was 0.02 µM (≈ 9.5 ng/mL).
